The text below walks through data of patent US10052320B2, “Substituted quinoxalines as FGFR kinase inhibitors” (ASTEX THERAPEUTICS LIMITED, priority 2011, dated 2018).

Molecules are shown by their SMILES. Like-named read-outs stand apart in the source and are kept apart here.

In assay [1] the test system is Ba/F3-KDR-transfected cells in the presence of 10 ng/ml murine IL3. The assay is described as follows: Ba/F3-KDR (plus IL3) cellular proliferation counterscreen, Alamar Blue. Format: cell-based. The conditions noted are these: for IC50: Mus musculus. As to the method: Ba/F3-KDR (Minus IL3 or Plus IL3) (Cellular Proliferation Assay)
[…] Cells were put in an incubator at 37° C. and 5% CO2. After 24 hours, 10 μl of Alamar Blue solution (0.5 mM K3Fe(CN)6, 0.5 mM KaFe(CN)6, 0.15 mM Resazurin and 100 mM Phosphate Buffer) was added to the wells, incubated for 4 hours at 37° C. and 5% CO2 before RFU's (Relative Fluorescence Units) (ex. 540 nm., em. 590 nm.) were measured in a flurorescence plate reader.
As a counterscreen the same experiment was performed in the presence of 10 ng/ml murine IL3.
In a 96 well plate, 180 μl cell culture medium (phenol red free RPMI-1640, 10% FBS, 2 mM L-Glutamine and 50 μg/ml Gentamycin) containing 10000 cells per well of Ba/F3-KDR-transfected cells were pipette and 20 μl of compound dilution in DMSO was added. Cells were put in an incubator at 37° C. and 5% CO2. After 24 hours, 40 μl of Alamar Blue solution (0.5 mM K3Fe(CN)6, 0.5 mM KaFe(CN)6, 0.15 mM Resazurin and 100 mM Phosphate Buffer) was added to the wells, incubated for 4 hours at 37° C. and 5% CO2 RFU's (Relative Fluorescence Units) (ex. 540 nm., em. 590 nm.) were measured in a flurorescence plate reader.

Assay [2] deals with Ba/F3-Flt3-transfected cells in the presence of 10 ng/ml murine IL3. The assay is described as follows: Ba/F3-Flt3 (plus IL3) cellular proliferation counterscreen, Alamar Blue. Type of assay: cell-based. The conditions noted are these: Mus musculus, read-out: BAF3-FLT3 (PLUS IL3) 96 well pIC50 (converted). (In general: A counterscreen serves to expose hits that act by an unwanted route or on another target.)

Setting [3] is: plus 10 ng/ml murine IL3, read-out: BAF3-KDR (PLUS IL3) 384 well pIC50 (converted).

In the case of `COc1cc(OC)cc(N(CC#Cc2ncccc2OC)c2ccc3ncc(-c4cccnc4)nc3c2)c1` [Compound 183], the IC50 in assay [1] (setting [3]) was > 10 µM. Turning to `COC(=O)C1CCCN1c1cnc2ccc(N(CCO)c3cc(OC)cc(OC)c3)cc2n1` (stereo not drawn) [Compound 172], in assay [1] (setting [3]), the IC50 was > 10 µM.

With `COc1cc(OC)cc(N(CC2CC2)c2ccc3ncc(C#Cc4cncn4C)nc3c2)c1` [Compound 22], the IC50 in assay [2] (plus IL3, 96 well) was > 10 µM. In the case of `COc1cc(OC)cc(N(CCO)c2ccc3ncc(-c4ccc(N5CCNCC5)cc4)nc3c2)c1` [Compound 166], the IC50 in assay [1] (setting [3]) was 6.03 µM. Same read-out and setting: the same measure for `COc1cc(OC)cc(N(CCNC(C)C)c2ccc3ncc(C(=O)NCCN4CCOCC4)nc3c2)c1` [Compound 160]: > 10 µM; for `COc1cc(OC)cc(N(CCN2CCOCC2)c2ccc3ncc(-c4ccc(NC(=O)N5CCOCC5)nc4)nc3c2)c1` [Compound 35]: > 10 µM.

As to `COc1cc(OC)cc(N(CC2CC2)c2ccc3ncc(C(=O)Nc4cncn4C)nc3c2)c1` [Compound 27], the IC50 in assay [2] (plus 10 ng/ml murine IL3) was > 10 µM.

With `COc1cc(OC)cc(N(CC2CC2)c2ccc3ncc(N4CCN(CCO)CC4)nc3c2)c1` [Compound 49], the IC50 in assay [2] (plus 10 ng/ml murine IL3) was > 10 µM. For the compound `COc1cc(OC)cc(N(CCO)c2ccc3ncc(-c4ccnc(C(=O)NCCCCCO)c4)nc3c2)c1` [Compound 139], in assay [1] (setting [3]), the IC50 was > 10 µM.

For the compound `COc1cc(OC)cc(N(CC2CC2)c2ccc3ncc(N4CCOCC4)nc3c2)c1` [Compound 63], the IC50 in assay [1] (read-out: BAF3-KDR (PLUS IL3) 384 well pIC50, plus IL3, 384 well, read-out: BAF3-KDR (PLUS IL3) 284 well pIC50 (converted)) was > 10 µM; in assay [2] (plus IL3, 96 well) it was > 10 µM. Turning to `COc1cc(OC)cc(N(CCCNCC(F)(F)F)c2ccc3ncc(-c4cnc(OC)nc4)nc3c2)c1` [Compound 26], in assay [1] (setting [3]), the IC50 was > 10 µM. Same read-out and setting: for `COc1cc(OC)cc(N(CCNC(C)C)c2ccc3ncc(-n4cnc(CO)c4)nc3c2)c1` [Compound 77] the value was > 10 µM. As for `COCC(CN(c1cc(OC)cc(OC)c1)c1ccc2ncc(-c3cccnc3)nc2c1)OC(C)=O` (single isomer, unassigned) [Compound 76], the “BAF3-KDR (PLUS IL3) 384 well pIC50” value in assay [1] (plus 10 ng/ml murine IL3) was <5. For the compound `COc1cc(OC)cc(N(CCN2CCOCC2)c2ccc3ncc(-c4ccc(N)nc4)nc3c2)c1` [Compound 169], the IC50 in assay [1] (setting [3]) was > 10 µM. With `COc1cc(OC)cc(N(CCNC(C)C)c2ccc3ncc(NCC4CCNCC4)nc3c2)c1` [Compound 161], the IC50 in assay [1] (setting [3]) was > 10 µM. Turning to `COc1cc(OC)cc(N(CCO)c2ccc3ncc(-c4ccc(N5CCNCC5)nc4)nc3c2)c1` [Compound 165], the IC50 in assay [1] (setting [3]) is > 10 µM. Consider `COc1cc(OC)cc(N(CCCNCC(F)(F)F)c2ccc3ncc(C(=O)NCCN4CCOCC4)nc3c2)c1` [Compound 158], for which the IC50 in assay [1] (setting [3]) is > 10 µM.

Regarding `COc1cc(OC)cc(N(CCNC(C)C)c2ccc3ncc(-c4ccc(N5CCN(C)CC5)nc4)nc3c2)c1` [Compound 170], the IC50 in assay [1] (setting [3]) is > 10 µM. Still for that read-out and setting: for `COc1cc(OC)cc(N(CCN2CCN(C(C)=O)CC2)c2ccc3ncc(-c4ccc(N)nc4)nc3c2)c1` [Compound 68] the value was > 10 µM.

As to `COc1cc(OC)cc(N(CC2CC2)c2ccc3ncc(-c4c[nH]cn4)nc3c2)c1` [Compound 39], the IC50 in assay [1] (setting [3]) and in assay [2] (plus 10 ng/ml murine IL3) was > 10 µM throughout. Turning to `COc1cc(OC)cc(N(CCCO)c2ccc3ncc(-c4ccnc(C(=O)NCCOCCO)c4)nc3c2)c1` [Compound 186], the IC50 in assay [1] (setting [3]) was > 10 µM.

In the case of `COc1cc(OC)cc(N(CCNC(C)C)c2ccc3ncc(C(=O)N4CCOCC4)nc3c2)c1` [Compound 181], in assay [1] (setting [3]), the IC50 was > 10 µM. Turning to `COc1cc(OC)cc(N(CC2CC2)c2ccc3ncc(-c4cccc(N5CCOCC5)c4)nc3c2)c1` [Compound 92], the IC50 in assay [2] (plus 10 ng/ml murine IL3) is > 10 µM. `COc1cc(OC)cc(N(CC2CC2)c2ccc3ncc(-c4ccc5[nH]ccc5c4)nc3c2)c1` [Compound 86]: in assay [2] (plus IL3, 96 well), the IC50 is > 10 µM. As for `COCC(O)CN(c1cc(OC)cc(OC)c1)c1ccc2ncc(-c3cccnc3)nc2c1` (single isomer, unassigned) [Compound 46], the IC50 in assay [1] (setting [3]) was > 10 µM. On to `COc1cc(OC)cc(N(CCO)c2ccc3ncc(-c4ccc(N5CCN(C)CC5)nc4)nc3c2)c1` [Compound 163], for which the IC50 in assay [1] (setting [3]) is 7.59 µM. On to `COc1cc(OC)cc(N(CC2CC2)c2ccc3ncc(N4CCN(C)CC4)nc3c2)c1` [Compound 64], for which the IC50 in assay [2] (plus IL3, 96 well) was > 10 µM. `COc1cc(OC)cc(N(CCO)c2ccc3ncc(C4=CCN(C(=O)OC(C)(C)C)CC4)nc3c2)c1` [Compound 178]: the IC50 in assay [1] (setting [3]) was > 10 µM.

As to `COc1cc(OC)cc(N(CC2CC2)c2ccc3ncc(-c4cnc5[nH]ccc5c4)nc3c2)c1` [Compound 88], the IC50 in assay [2] (plus IL3, 96 well) was > 10 µM. For `COc1cc(OC)cc(N(CCCNCC(F)(F)F)c2ccc3ncc(-c4ccnc(Cl)c4)nc3c2)c1` [Compound 145], in assay [1] (setting [3]), the IC50 is > 10 µM. Turning to `COc1cc(OC)cc(N(CCNC(C)C)c2ccc3ncc(C(=O)NCCCN4CCN(C)CC4)nc3c2)c1` [Compound 159], the IC50 in assay [1] (setting [3]) is > 10 µM. The same measure, in the same setting: for `CO/N=C(\C)c1cnc2ccc(N(CCO)c3cc(OC)cc(OC)c3)cc2n1` [Compound 29] the value was > 10 µM; for `COc1cc(OC)cc(N(CCCNCC(F)(F)F)c2ccc3ncc(-c4ccnc(C(=O)NCCCCCO)c4)nc3c2)c1` [Compound 150], > 10 µM; for `COc1cc(OC)cc(N(CCNC(C)C)c2ccc3ncc(C(=O)NCCCN4CCCCC4)nc3c2)c1` [Compound 182], > 10 µM. `COc1cc(OC)cc(N(CCN)c2ccc3ncc(-c4ccn(C)c4)nc3c2)c1` [Compound 79]: in assay [1] (setting [3]), the IC50 was > 10 µM. As for `COc1cc(OC)cc(N(CCNC(C)C)c2ccc3ncc(-c4ccn[nH]4)nc3c2)c1` [Compound 189], in assay [1] (setting [3]), the IC50 was > 10 µM. Regarding `COc1cc(OC)cc(N(CC2CC2)c2ccc3ncc(-c4ccnc(N5CCOCC5)c4)nc3c2)c1` [Compound 90], the IC50 in assay [2] (plus IL3, 96 well) was > 10 µM. As for `COc1cc(OC)cc(N(CC2CC2)c2ccc3ncc(-n4cccn4)nc3c2)c1` [Compound 95], the IC50 in assay [2] (plus 10 ng/ml murine IL3) is > 10 µM. On the same count and under the same terms, the same measure for `COc1cc(OC)cc(N(CC2CC2)c2ccc3ncc(C(=O)N4CCC4)nc3c2)c1` [Compound 93]: > 10 µM.

Consider `COc1cc(OC)cc(N(CCO)c2ccc3ncc(C4=CCN(C(=O)OC(C)(C)C)C4)nc3c2)c1` [Compound 173], for which the IC50 in assay [1] (setting [3]) is > 10 µM. On to `COc1cc(OC)cc(N(CCO)c2ccc3ncc(C(=O)Nc4cnn(C)c4)nc3c2)c1` [Compound 184], for which the IC50 in assay [1] (setting [3]) is > 10 µM.

Turning to `COc1cc(OC)cc(N(CC2CC2)c2ccc3ncc(-c4nnc(C)o4)nc3c2)c1` [Compound 85], in assay [2] (plus IL3, 96 well), the IC50 was > 10 µM. Take `COc1cc(OC)cc(N(CCNC(C)C)c2ccc3ncc(-c4ccc(N5CCOCC5)nc4)nc3c2)c1` [Compound 168]: the IC50 in assay [1] (setting [3]) was 7.08 µM.

On to `COCC(O)CN(c1cc(OC)cc(OC)c1)c1ccc2ncc(-c3cccnc3)nc2c1` (single isomer, unassigned) [Compound 47], for which the “BAF3-KDR (PLUS IL3) 384 well pIC50” value in assay [1] (plus 10 ng/ml murine IL3) is <5. As for `COc1cc(OC)cc(N(CCO)c2ccc3ncc(-c4ccc(N5CCN(C(=O)OC(C)(C)C)CC5)cc4)nc3c2)c1` [Compound 156], the IC50 in assay [1] (setting [3]) was > 10 µM. The same measure, in the same setting: for `COc1cc(OC)cc(N(CCNC(C)C)c2ccc3ncc(C(=O)N4CCN(C)CC4)nc3c2)c1` [Compound 179] the value was > 10 µM. On the same count and under the same terms, the same measure for `COc1cc(OC)cc(N(CCNC(C)C)c2ccc3ncc(C(=O)N4CCCCC4)nc3c2)c1` [Compound 180]: > 10 µM. As to `COc1cc(OC)cc(N(CC2CC2)c2ccc3ncc(NC(=O)c4ccc(F)cc4)nc3c2)c1` [Compound 28], the IC50 in assay [1] (setting [3]) and in assay [2] (plus 10 ng/ml murine IL3) was > 10 µM each time. For `COc1cc(OC)cc(N(CCNC(C)C)c2ccc3ncc(N4CCC(CN)CC4)nc3c2)c1` [Compound 67], the IC50 in assay [1] (setting [3]) was > 10 µM. The same measure, in the same setting: for `COc1cc(OC)cc(N(CCO)c2ccc3ncc(/C(C)=N/OC(C)(C)C)nc3c2)c1` [Compound 171] the value was > 10 µM; for `CNc1ccc(-c2cnc3ccc(N(CCCNCC(F)(F)F)c4cc(OC)cc(OC)c4)cc3n2)cn1` [Compound 129], > 10 µM; for `COc1cc(OC)cc(N(CCNC(C)C)c2ccc3ncc(-c4ccnn4C4CCCCO4)nc3c2)c1` (stereo not drawn) [Compound 188], > 10 µM. On to `COc1cc(OC)cc(N(CC2CC2)c2ccc3ncc(-c4ccnc(N5CCN(C)CC5)c4)nc3c2)c1` [Compound 37], for which the IC50 in assay [2] (plus IL3, 96 well) was ~4.68 µM. Turning to `COc1cc(OC)cc(N(CCO)c2ccc3ncc(-c4ccccc4CCO)nc3c2)c1` [Compound 151], in assay [1] (setting [3]), the IC50 is > 10 µM. `COc1cc(OC)cc(N(CCCO)c2ccc3ncc(-c4ccnc(F)c4)nc3c2)c1` [Compound 142]: the IC50 in assay [1] (setting [3]) was > 10 µM.

`COc1cc(OC)cc(N(CCNC(C)C)c2ccc3ncc(-n4cnc(COC(C)=O)c4)nc3c2)c1` [Compound 167]: the IC50 in assay [1] (setting [3]) is > 10 µM. On the same count and under the same terms, for `COc1cc(OC)cc(N(CCO)c2ccc3ncc(C4CCN(C(=O)OC(C)(C)C)CC4)nc3c2)c1` [Compound 185] the value was > 10 µM.
